Reference: patent US11970474B2, “Substituted benzodiazoles and use thereof in therapy” (THOMAS HELLEDAYS STIFTELSE FÖR MEDICINSK FORSKNING, priority 2018, dated 2024)

Tests used:
OGG1 = OGG1 (Homo sapiens (Human), UniProt O15527); test: In vitro OGG1 activity assay; type: biochemical; conditions: 800 pM OGG1 enzyme, 2 nM human APEX1, 10 nM 8-oxoA:C substrate
How it was run: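 Fluorescence-release assay on a duplex oligonucleotide carrying an OGG1 substrate base beside a fluorophore, quenched from the complementary strand. Excess APEX1 cleaves the abasic site left by base excision, melting the duplex and unquenching the fluorophore. Compounds in DMSO were dispensed before enzyme and substrate, and fluorescein signal was read.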

CCL2 = test: Mouse CCL2 assay in MLE12 cells; type: cell-based; conditions: Mus musculus, MLE12, 30 h, MLE12 cells; TNF-α 20 ng/ml; supernatant after 30 hours; HTRF; read-out: CCL2 (EC50)
From the text: Cisbio mouse CCL2 assay is intended for the quantitative measurement of CCL2 in supernatant using HTRF® technology. The assay is compatible with mouse samples, and is highly specific for CCL2. CCL2 is detected in a sandwich assay format using 2 different specific antibodies, one labeled with Cryptate (donor) and the second with d2 (acceptor). The detection principle is based on HTRF® technology. When the labelled antibodies bind to the same antigen, the excitation of the donor with a light source (laser or flash lamp) triggers a Fluorescence Resonance Energy Transfer (FRET) towards the acceptor, which in turn fluoresces at a specific wavelength (665 nm). The two antibodies bind to the CCL2 present in the sample, thereby generating FRET. Signal intensity is proportional to the number of antigen-antibody complexes formed and therefore to the CCL2 concentration. • Materials: • Cells: MLE12 (Mouse Lung Epithelial cells, SV40 transformed) • Medium: DMEM/F12 (Gibco #11330057), FBS 5% (Gibco #10500064), Pen/Strep 50 U/50 μg/ml (Gibco #15070063) • Cell plates: 384-well, black/clear, TC-treated (Corning #3764) • Source plate: Labcyte LDV 384 (Labcyte #LP-0200) • Compound dilution plate: V-bottom 384-well PP plate (Greiner #781280) • Compounds: 10 mM stocks in DMSO • HTRF plates: 384-well, white, half area, non-binding (Costar #3824) • Mouse CCL2 kit: Cisbio 62MCCL2PEH • Other reagents: Trypsin/EDTA 10× (Gibco #15400054), PBS (Gibco #14190169), Resazurin (Sigma-Aldrich #199303), 1 mg/ml in PBS, TNF-α 200 μg/ml in PBS (Peprotech #300-01A) • Instruments: • Echo liquid handler (Labcyte) • Multidrop Combi (Thermo Scientific) • Sense plate reader (Hidex) Compound Handling:
(§1) Stock solutions (10 mM in DMSO) of compounds were dispensed in V-bottom 384-well plates and the following dilutions were prepared: 10 mM and 0.05 mM. The dilutions were transferred to the source plate. Duplicate 6 points dose-response curves of compounds were nano-dispensed in cell plates (CCL2 assay) and in parallel, 11 points DR curves in duplicates were nano-dispensed for the viability assay. The plates were heat sealed and kept at RT until use.
(§2) MLE12 cells in flasks were washed once with PBS, detached with Trypsin/EDTA, resuspended in fresh medium and counted. Cells were diluted to 3×10^5 cells/ml and seeded with Multidrop Combi in cell plates pre-dispensed with compounds, 25 μl/well (7500 cells/well). The plates were placed, one by one, in a CO2-incubator at 37° C. for 1 hour after which 25 μl/well of TNF-α (final concentration 20 ng/ml) were added. The plates were transferred back to the CO2-incubator placed in a plastic box with wet tissue in the bottom, to avoid evaporation, for 30 hours.
After 30 hours incubation, the plates were spun down 5 minutes at 400 g, and 16 μl/well of the supernatants were transferred to the assay plate. A mCCL2 standard curve was prepared according to the kit protocol and 16 μl/well of the standards were also added to the assay plate.
The anti-CCL2 antibody mix was prepared according to the kit protocol, and 4 μl/well were added to the assay plate. The plate was sealed and incubated over night at RT. After incubation the plate was read in Sense plate reader with Time-resolved FRET protocol (Ex330 nm/Em 620 and 665 nm). After data reduction, the delta ratios were imported to an excel template where the IC50 values were calculated.

MLE12 cells = test: Cell viability assay in MLE12 cells (resazurin); type: cell-based, mouse; conditions: Mus musculus, MLE12, 24 h, TNF-α 20 ng/ml, resazurin added after 24 hours culture
Procedure: as §1, §2
After 24 hours culture, resazurin reagent (stock 1 mg/ml in PBS) diluted 1:17 in PBS was added with Multidrop Combi, 10 μl/well, and plates were incubated for 6 hours. Plates were read in Sense plate reader with resorufin protocol (ex544 nm/em595 nm). The results were imported to an excel template where the EC50 values were calculated using XLfit.

Sequence of OGG1 (O15527 whole entry): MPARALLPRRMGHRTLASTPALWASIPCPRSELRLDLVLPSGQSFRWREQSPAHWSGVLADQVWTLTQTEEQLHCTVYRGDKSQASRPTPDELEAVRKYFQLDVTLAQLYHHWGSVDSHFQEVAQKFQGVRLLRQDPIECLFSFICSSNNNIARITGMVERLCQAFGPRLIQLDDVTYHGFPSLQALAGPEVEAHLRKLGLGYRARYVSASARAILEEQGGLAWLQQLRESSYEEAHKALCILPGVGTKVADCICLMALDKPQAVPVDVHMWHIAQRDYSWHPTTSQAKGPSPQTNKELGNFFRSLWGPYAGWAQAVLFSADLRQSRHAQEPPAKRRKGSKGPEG

Row | SMILES | IC50 (OGG1) | EC50 (CCL2) | IC50 (MLE12 cells)
1 | COc1cc(NC(=O)[C@H]2CC[C@@H](n3c(=O)[nH]c4c(N(C)Cc5ccccc5)cccc43)CC2)ccc1C [Example 243, Cis-4-{4-[benzyl(methyl)amino]-2-oxo-2,3-dihydro-1H-1,3-benzodiazol-1-yl}-N-(3-methoxy-4-methylphenyl)cyclohexane-1-carboxamide] | 1.47 µM | 14.7 µM | 5.74 µM
2 | Nc1ccc(-c2cccc3c2[nH]c(=O)n3C2CCN(C(=O)Nc3ccc(Cl)c(Cl)c3)CC2)cn1 [Example 39, 4-[4-(6-Aminopyridin-3-yl)-2-oxo-2,3-dihydro-1H-1,3-benzodiazol-1-yl]-N-(3,4-dichlorophenyl)piperidine-1-carboxamide] | 0.788 µM | 15.1 µM | 6.5 µM
3 | O=C(Nc1ccc(Cl)c(Cl)c1)N1CCC(n2c(=O)[nH]c3c(Br)cccc32)CC1 [Example 27, 4-(4-Bromo-2-oxo-2,3-dihydro-1H-1,3-benzodiazol-1-yl)-N-(3,4-dichlorophenyl)piperidine-1-carboxamide] | 0.488 µM | 16.3 µM | 7.74 µM
4 | COc1cc(NC(=O)[C@H]2CC[C@@H](n3c(=O)[nH]c4c(N5CC[C@H](N(C)C)C5)cccc43)CC2)ccc1C [Example 295, Cis-4-{4-[(3S)-3-(dimethylamino)pyrrolidin-1-yl]-2-oxo-2,3-dihydro-1H-1,3-benzodiazol-1-yl}-N-(3-methoxy-4-methylphenyl)cyclohexane-1-carboxamide] | 0.00962 µM | 11.1 µM | 10.4 µM
5 | COc1cc(NC(=O)[C@H]2CC[C@@H](n3c(=O)[nH]c4c(C(=O)N5CCOCC5)cccc43)CC2)ccc1C [Example 262, Cis-N-(3-methoxy-4-methylphenyl)-4-[4-(morpholine-4-carbonyl)-2-oxo-2,3-dihydro-1H-1,3-benzodiazol-1-yl]cyclohexane-1-carboxamide] | 0.348 µM | > 100 µM | 19.7 µM
6 | COc1cc(NC(=O)[C@H]2CC[C@@H](n3c(=O)[nH]c4c(OCCCN(C)C)cccc43)CC2)ccc1C [Example 306, Cis-4-{4-[3-(dimethylamino)propoxy]-2-oxo-2,3-dihydro-1H-1,3-benzodiazol-1-yl}-N-(3-methoxy-4-methylphenyl)cyclohexane-1-carboxamide] | 0.00282 µM | 8.07 µM | 7.15 µM
7 | COc1cc(NC(=O)[C@H]2CC[C@@H](n3c(=O)[nH]c4c(C(=O)N5CCNC(C(F)(F)F)C5)cccc43)CC2)ccc1C (stereo partly drawn) [Example 274, Cis-N-(3-methoxy-4-methylphenyl)-4-{2-oxo-4-[3-(trifluoromethyl)piperazine-1-carbonyl]-2,3-dihydro-1H-1,3-benzodiazol-1-yl}cyclohexane-1-carboxamide] | 0.0921 µM | 39 µM | 18.1 µM
8 | COc1cc(NC(=O)[C@H]2CC[C@@H](n3c(=O)[nH]c4c(C(=O)N5CC[C@@H](N(C)C)C5)cccc43)CC2)ccc1C [Example 267, Cis-4-{4-[(3R)-3-(dimethylamino)pyrrolidine-1-carbonyl]-2-oxo-2,3-dihydro-1H-1,3-benzodiazol-1-yl}-N-(3-methoxy-4-methylphenyl)cyclohexane-1-carboxamide] | 0.0824 µM | 34.1 µM | 17.9 µM
9 | COc1ncc(NC(=O)[C@H]2CC[C@@H](n3c(=O)[nH]c4c(Br)cccc43)CC2)cc1C [Example 168, (Cis)-4-(4-bromo-2-oxo-2,3-dihydro-1H-1,3-benzodiazol-1-yl)-N-(6-methoxy-5-methylpyridin-3-yl)cyclohexane-1-carboxamide] | 0.044 µM | 32.6 µM | 14.4 µM
10 | Cn1c(NC(=O)[C@H]2CC[C@@H](n3c(=O)[nH]c4c(Br)cccc43)CC2)nc2ccccc21 [Example 257, Cis-4-(4-bromo-2-oxo-2,3-dihydro-1H-1,3-benzodiazol-1-yl)-N-(1-methyl-1H-1,3-benzodiazol-2-yl)cyclohexane-1-carboxamide] | 0.0269 µM | 34.3 µM | 19.9 µM

Now from value to molecule, other results behind:

Row | IC50 (OGG1) | EC50 (CCL2) | SMILES | IC50 (MLE12 cells)
11 | 0.0779 µM | 34.1 µM | COc1cc(NC(=O)[C@H]2CC[C@@H](n3c(=O)[nH]c4ccccc43)CC2)ccc1C [Example 226, Cis-N-(3-methoxy-4-methylphenyl)-4-(2-oxo-2,3-dihydro-1H-1,3-benzodiazol-1-yl)cyclohexane-1-carboxamide] | 17.1 µM
12 | 0.174 µM | 36.2 µM | COc1ccc(NC(=O)[C@H]2CC[C@@H](n3c(=O)[nH]c4c(Br)cccc43)CC2)cn1 [Example 183, Cis-4-(4-bromo-2-oxo-2,3-dihydro-1H-1,3-benzodiazol-1-yl)-N-(6-methoxypyridin-3-yl)cyclohexane-1-carboxamide] | 17 µM
13 | 0.494 µM | 16.5 µM | Cc1n[nH]c2ccc(NC(=O)[C@H]3CC[C@@H](n4c(=O)[nH]c5c(Br)cccc54)CC3)cc12 [Example 199, Cis-4-(4-bromo-2-oxo-2,3-dihydro-1H-1,3-benzodiazol-1-yl)-N-(3-methyl-1H-indazol-5-yl)cyclohexane-1-carboxamide] | 7.51 µM
14 | 0.106 µM | 18.7 µM | O=c1[nH]c2c(Cl)cccc2n1[C@H]1CC[C@@H](C(=O)Nc2ccc(Cl)cc2)CC1 [Example 150, (Cis)-4-(4-chloro-2-oxo-2,3-dihydro-1H-1,3-benzodiazol-1-yl)-N-(4-chlorophenyl)cyclohexane-1-carboxamide] | 7.58 µM
15 | 0.0528 µM | 11.6 µM | COc1ncc(NC(=O)[C@H]2CC[C@@H](n3c(=O)[nH]c4c(Br)cccc43)CC2)cc1Cl [Example 202, Cis-4-(4-bromo-2-oxo-2,3-dihydro-1H-1,3-benzodiazol-1-yl)-N-(5-chloro-6-methoxypyridin-3-yl)cyclohexane-1-carboxamide] | 7.97 µM
16 | 0.041 µM | 42.7 µM | O=c1[nH]c2c(Br)cccc2n1[C@H]1CC[C@@H](C(=O)Nc2ccc3c(c2)OCO3)CC1 [Example 166, (Cis)-N-(2H-1,3-benzodioxol-5-yl)-4-(4-bromo-2-oxo-2,3-dihydro-1H-1,3-benzodiazol-1-yl)cyclohexane-1-carboxamide] | 16.4 µM
17 | 0.036 µM | 32.1 µM | COc1ccc(NC(=O)[C@H]2CC[C@@H](n3c(=O)[nH]c4c(Cl)cccc43)CC2)cc1 [Example 147, (Cis)-4-(4-chloro-2-oxo-2,3-dihydro-1H-1,3-benzodiazol-1-yl)-N-(4-methoxyphenyl)cyclohexane-1-carboxamide] | 17.9 µM
18 | 0.074 µM | 15.4 µM | Cc1cc(NC(=O)[C@H]2CC[C@@H](n3c(=O)[nH]c4c(Br)cccc43)CC2)ccc1Cl [Example 152, (Cis)-4-(4-bromo-2-oxo-2,3-dihydro-1H-1,3-benzodiazol-1-yl)-N-(4-chloro-3-methylphenyl)cyclohexane-1-carboxamide] | 6.18 µM
19 | 0.501 µM | 23.8 µM | O=c1[nH]c2c(Br)cccc2n1[C@H]1CC[C@@H](C(=O)Nc2ccc(F)cc2)CC1 [Example 136, (Cis)-4-(4-bromo-2-oxo-2,3-dihydro-1H-1,3-benzodiazol-1-yl)-N-(4-fluorophenyl)cyclohexane-1-carboxamide] | 8.86 µM
